Bounds are passed on as bounds.

One experiment concerns Onchocerca gutturosa adult male worms. The experiment in a line: Onchocerciasis in vitro screening model Onchocerca gutturosa (worm motility score and MTT/formazan colorimetry). The note with it: Onchocerca gutturosa, read-out: O. gutt Act class.
Experimental: Onchocerciasis: In Vitro Screening Model Onchocerca gutturosa
Parasite and cell cultures. Onchocerca gutturosa adult male worms were obtained by dissection from the nuchal ligament connective tissues of naturally infected cattle, from Gambia, W Africa.
The worms were maintained for at least 24 h in culture before use in Eagles Minimum Essential Medium with Earl's Salts (Gibco, UK)+10% heat inactivated new born calf serum (Gibco, UK)+antibiotic cover of 200 units/ml penicillin, 200 μg/ml streptomycin and 0.5 μg/ml amphotericin B (Sigma, UK). Only normally active specimens were used in the test. All cultures and assays were conducted at 37° C. under an atmosphere of 5% CO2 in air.
Drug sensitivity assays. Compound stock solutions were prepared in 100% DMSO unless otherwise indicated and diluted into the medium. Any unused compound stocks were stored at −20° C. Assays were performed in sterile 24-well (2 ml) plates (Falcon, UK).
Worms were then transferred individually to each well of the plate using fine forceps. Worm viability was assessed using 2 parameters: • The measurement of mean worm motility scores on a scale of 0 (immotile) to 10 (maximum) every 24 h, terminating at 120 h, using an Olympus inverted microscope. • The biochemical evaluation of worm viability using MTT/formazan colorimetry. The MTT assay was carried out after the last motility reading (120 h). Single intact worms were placed in each well of a 48-well plate (Falcon, UK) containing 0.5 ml of a solution consisting of 0.5 mg/ml MTT (Sigma UK) in phosphate buffered saline, and then incubated for 30 min at 37° C. The worms were removed, blotted carefully, and individually transferred to separate wells of a 96-well microtiter plate, each containing 200 μl of DMSO to solubilize the formazan. After 1 h the plate was gently agitated to disperse the color evenly and the absorbance value (optical density) of the resulting formazan solution was determined at 490 nm using a multi-well scanning spectrophotometer (Elisa-reader, Dynatech, UK). Inhibition of formazan formation was correlated with worm damage or death.
Primary screen. New compounds were usually tested at 1.25×10^−5 M. Also expressed in μg/ml.
Secondary screen. […] Serial 1 in 4 drug dilutions was carried out to find activity endpoint and EC50 values for motility reduction and inhibition of formazan formation were produced. EC50 values were determined using Excel or Origin V7 scientific graphing and data analysis software.
With `O=C(c1sc(Nc2cc(C(F)(F)F)ccn2)nc1-c1ccccn1)N1CCOCC1` [Example 199, morpholino(4-(pyridin-2-yl)-2-(4-(trifluoromethyl)pyridin-2-ylamino)thiazol-5-yl)methanone], the IC50 lay in the range of 500 to 5000 nM.

For `O=C(c1sc(Nc2cc(C(F)(F)F)ccn2)nc1-c1ccccn1)N1CCCCC1` [Example 200, piperidin-1-yl(4-(pyridin-2-yl)-2-(4-(trifluoromethyl)pyridin-2-ylamino)thiazol-5-yl)methanone], the IC50 was 500 to 5000 nM.

As to `C[C@@H]1CN(Cc2sc(Nc3cc(C(F)(F)F)ccn3)nc2-c2ccccn2)C[C@H](C)O1` [Example 201, 5-(((2R,6S)-2,6-dimethyl-morpholino)methyl)-4-(pyridin-2-yl)-N-(4-(trifluoromethyl)pyridin-2-yl)thiazol-2-amine], the IC50 was below 200 nM.

`O=C(NCC1CCOCC1)c1sc(Nc2cc(C(F)(F)F)ccn2)nc1-c1ccccn1` [Example 203, 4-(pyridin-2-yl)-N-((tetrahydro-2H-pyran-4-yl)methyl)-2-(4-(trifluoromethyl)pyridin-2-ylamino) thiazole-5-carboxamide]: the IC50 is 500 to 5000 nM.

On to `O=C(NC1CCCC1)c1sc(Nc2cc(C(F)(F)F)ccn2)nc1-c1ccccn1` [Example 204, N-cyclopentyl-4-(pyridin-2-yl)-2-(4-(trifluoromethyl)pyridin-2-ylamino) thiazole-5-carboxamide], for which the IC50 was 500 to 5000 nM.

As to `Cc1sc(Nc2cc(OC3CCOCC3)ccn2)nc1-c1ccccn1` [Example 205, 5-methyl-4-(pyridin-2-yl)-N-(4-(tetrahydro-2H-pyran-4-yloxy)pyridin-2-yl)thiazol-2-amine], the IC50 was below 200 nM.

`O=C(O)c1sc(Nc2cc(C(F)(F)F)ccn2)nc1-c1ccccn1` [Example 206, 4-(pyridin-2-yl)-2-(4-(trifluoromethyl)pyridin-2-ylamino) thiazole-5-carboxylic acid]: the IC50 was below 200 nM.

Turning to `O=C(c1sc(Nc2cc(C(F)(F)F)ccn2)nc1-c1ccccn1)N1CCCC1` [Example 207, (4-(pyridin-2-yl)-2-(4-(trifluoromethyl)pyridin-2-ylamino)thiazol-5-yl)(pyrrolidin-1-yl)methanone], the IC50 was below 200 nM.

As for `CN(C)CCNC(=O)c1sc(Nc2cc(C(F)(F)F)ccn2)nc1-c1ccccn1` [Example 208, N-(2-(dimethylamino)ethyl)-4-(pyridin-2-yl)-2-(4-(trifluoro-methyl)pyridin-2-ylamino) thiazole-5-carboxamide], the IC50 is below 200 nM.

As to `CN(C)C(=O)c1sc(Nc2cc(C(F)(F)F)ccn2)nc1-c1ccccn1` [Example 209, N,N-dimethyl-4-(pyridin-2-yl)-2-(4-(trifluoromethyl)pyridin-2-ylamino) thiazole-5-carboxamide], the IC50 is below 200 nM.

Regarding `FC(F)(F)c1ccnc(Nc2nc(-c3ccccn3)c(CN3CCOCC3)s2)c1` [Example 210, 5-(morpholino-methyl)-4-(pyridin-2-yl)-N-(4-(trifluoromethyl)pyridin-2-yl) thiazol-2-amine], the IC50 was below 200 nM.

As for `O=C(NCC(F)(F)F)c1ccnc(Nc2nc(-c3ccccn3)c(CO)s2)c1` [Example 211, 2-(5-(hydroxy-methyl)-4-(pyridin-2-yl)thiazol-2-ylamino)-N-(2,2,2-trifluoroethyl) isonicotinamide], the IC50 was in the range of 200 to 500 nM.

With `CC(=O)N(C)c1cc(C(F)(F)F)cnc1Nc1nc(-c2ccccn2)cs1` [Example 212, N-methyl-N-(2-(4-(pyridin-2-yl)thiazol-2-ylamino)-5-(trifluoro-methyl)pyridin-3-yl) acetamide], the IC50 is below 200 nM.

For the molecule `c1ccc(-c2csc(Nc3ncccn3)n2)nc1` [Example 213, 4-(pyridin-2-yl)-N-(pyrimidin-2-yl)thiazol-2-amine], the IC50 lay in the range of 500 to 5000 nM.

With `c1ccc(Nc2nc(-c3ccccn3)cs2)nc1` [Example 214, N,4-di(pyridin-2-yl)thiazol-2-amine], the IC50 fell in the range of 200 to 500 nM.

In the case of `Cc1cccnc1Nc1nc(-c2ccccn2)cs1` [Example 215, N-(3-methylpyridin-2-yl)-4-(pyridin-2-yl)thiazol-2-amine], the IC50 is below 200 nM.

With `FC(F)(F)c1ccc(Nc2nc(-c3ccccn3)cs2)nc1` [Example 217, 4-(pyridin-2-yl)-N-(5-(trifluoromethyl)pyridin-2-yl)thiazol-2-amine], the IC50 is 500 to 5000 nM.

In the case of `COc1ccc(Nc2nc(-c3ccccn3)cs2)nc1` [Example 218, N-(5-methoxypyridin-2-yl)-4-(pyridin-2-yl)thiazol-2-amine], the IC50 is 200 to 500 nM.

As for `CC(C)c1ccc(Nc2nc(-c3ccccn3)cs2)nc1` [Example 219, N-(5-isopropylpyridin-2-yl)-4-(pyridin-2-yl)thiazol-2-amine], the IC50 was below 200 nM.

With `Cc1ccnc(Nc2nc(-c3cc(C)ccn3)cs2)c1` [Example 220, N,4-bis(4-methylpyridin-2-yl)thiazol-2-amine], the IC50 was below 200 nM.

For the molecule `c1ccc(-c2ccc(Nc3nc(-c4ccccn4)cs3)nc2)cc1` [Example 221, N-(5-phenylpyridin-2-yl)-4-(pyridin-2-yl)thiazol-2-amine], the IC50 is below 200 nM.

As to `Cc1ccnc(-c2csc(Nc3ncccc3C)n2)c1` [Example 222, N-(3-methylpyridin-2-yl)-4-(4-methylpyridin-2-yl)thiazol-2-amine], the IC50 is 500 to 5000 nM.

For the molecule `Cc1ccnc(Nc2nc(-c3cc(Cl)ccn3)cs2)c1` [Example 223, 4-(4-chloropyridin-2-yl)-N-(4-methylpyridin-2-yl)thiazol-2-amine], the IC50 is below 200 nM.

Turning to `CCOc1ccnc(-c2csc(Nc3cc(C)ccn3)n2)c1` [Example 224, 4-(4-ethoxypyridin-2-yl)-N-(4-methylpyridin-2-yl)thiazol-2-amine], the IC50 was in the range of 200 to 500 nM.

`COc1ccc(-c2csc(Nc3cc(C)ccn3)n2)nc1` [Example 225, 4-(5-methoxypyridin-2-yl)-N-(4-methylpyridin-2-yl)thiazol-2-amine]: the IC50 is below 200 nM.

For the molecule `Cc1sc(Nc2ccccn2)nc1-c1ccccn1` [Example 227, 5-methyl-N,4-di(pyridin-2-yl)thiazol-2-amine], the IC50 was below 200 nM.

`COc1ccc(-c2cnc(Nc3cc(OC(C)C)ccn3)o2)nc1` [Example 228, N-(4-isopropoxy-pyridin-2-yl)-5-(5-methoxypyridin-2-yl)oxazol-2-amine]: the IC50 was 500 to 5000 nM.

As to `c1ccc(-c2ccnc(Nc3ncc(-c4ccccn4)o3)c2)cc1` [Example 229, N-(4-phenylpyridin-2-yl)-5-(pyridin-2-yl)oxazol-2-amine], the IC50 lay in the range of 500 to 5000 nM.

For `Cc1ccnc(Nc2ncc(-c3ncccc3C)o2)c1` [Example 230, 5-(3-methylpyridin-2-yl)-N-(4-methylpyridin-2-yl)oxazol-2-amine], the IC50 lay in the range of 500 to 5000 nM.

With `CC(C)Oc1ccc(-c2cnc(Nc3ncccc3N(C)C)o2)nc1` [Example 231, N2-(5-(5-isopropoxy-pyridin-2-yl)oxazol-2-yl)-N3,N3-dimethyl-pyridine-2,3-diamine], the IC50 fell in the range of 500 to 5000 nM.

`c1ccc(Nc2nc(-c3ccccn3)co2)nc1` [Example 232, N,4-di (pyridin-2-yl)oxazol-2-amine]: the IC50 is below 200 nM.

`COc1ccc(-c2cc(Nc3cc(OC(C)C)ccn3)n(C)n2)nc1` [Example 233, 4-isopropoxy-N-(3-(5-methoxypyridin-2-yl)-1-methyl-1H-pyrazol-5-yl)pyridin-2-amine]: the IC50 fell in the range of 500 to 5000 nM.

As for `Cc1cccnc1Nc1cc(-c2ccc(OC3CCOCC3)cn2)nn1-c1ccccc1` [Example 234, 3-methyl-N-(1-phenyl-3-(5-(tetrahydro-2H-pyran-4-yloxy)pyridin-2-yl)-1H-pyrazol-5-yl)pyridin-2-amine], the IC50 lay in the range of 500 to 5000 nM.

Turning to `Cc1ccnc(Nc2cc(-c3ncccc3C)nn2-c2ccccc2)c1` [Example 235, 4-methyl-N-(3-(3-methylpyridin-2-yl)-1-phenyl-1H-pyrazol-5-yl)pyridin-2-amine], the IC50 was in the range of 500 to 5000 nM.

As to `COc1ccc(-c2cc(Nc3cc(OC(C)C)ccn3)[nH]n2)nc1` [Example 236, 4-isopropoxy-N-(3-(5-methoxypyridin-2-yl)-1H-pyrazol-5-yl)pyridin-2-amine], the IC50 was in the range of 500 to 5000 nM.

Turning to `Cc1cccnc1Nc1cc(-c2ccc(OC3CCOCC3)cn2)n[nH]1` [Example 237, 3-methyl-N-(3-(5-(tetrahydro-2H-pyran-4-yloxy)pyridin-2-yl)-1H-pyrazol-5-yl)pyridin-2-amine], the IC50 lay within 500 to 5000 nM.

As to `c1ccc(-c2ccnc(Nc3cc(-c4ccccn4)n[nH]3)c2)cc1` [Example 238, 4-phenyl-N-(3-(pyridin-2-yl)-1H-pyrazol-5-yl)pyridin-2-amine], the IC50 was below 200 nM.

The same experiment, now with this note: read-out: O. gutt Act class; O. gutturosa adult male worms in vitro.
“N- (cyclohexyl- methyl)- 4-(pyridin- 2-yl)-2-(4- (trifluoromethyl) pyridin-2- ylamino) thiazole-5- carboxamide [Example 202]”: the IC50 lay in the range of 500 to 5000 nM.

The values above are taken from US20240025891A1 (Celgene Corporation, priority 2020, published 2024).
